These results are taken from ChEMBL document CHEMBL1201862, “PubChem BioAssay data set” (2004).

What all share (assay): NCI anticancer screen, dose series, 48 h
Experiment [1] has as its system HCC 2998.
The test system of experiment [2] is T47D.
The subject of experiment [3] is CCRF-CEM.
Experiment [4] deals with SR.
The subject of experiment [5] is TK-10.
The test system of experiment [6] is KM12.
In experiment [7] the test system is NCI-H23.
Experiment [8] concerns SNB-19.
Experiment [9] has as its system HT-29.
In experiment [10] the test system is SF-295.
Experiment [11] relates to LOX IMVI.
For experiment [12], the system named is CAKI-1.
The subject of experiment [13] is NCI-H460.
In experiment [14] the test system is M14.
Experiment [15] relates to SF-268.
In experiment [16] the test system is UO-31.
Experiment [17] has as its system PC-3.
The subject of experiment [18] is K562.
Experiment [19] relates to HCT-116.
Experiment [20] deals with MOLT-4.

Structures are written as SMILES.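 Tested at 5 concentrations; 48 h exposure; 96-well plates; endpoints linearly interpolated, else capped at highest concentration. GI50 marks 50% less growth.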 Calls of active or inactive are those of the source. Cut-off read from the data, not from the text of the source: active = GI50 up to about 1.1 µM and inactive = higher. A value given as a limit tells only on which side of the number the result lay.

`CCCCCCCC1c2cc3nc(cc4[nH]c(cc5nc(cc([nH]2)[C@@]1(C)CC(=O)N(C)C)C(C)=C5CCC(=O)O)c(CCC(=O)O)c4C)C=C3C` (stereo not given in full): the GI50 was 20 µM (inactive) in experiment [1]; 34.9 µM (inactive) in [2]; 18.8 µM (inactive) in [3]; 19.9 µM (inactive) in experiment [4]; 37.2 µM (inactive) in [5]; 24.9 µM (inactive) in experiment [6]. Further, the GI50 in experiment [7] is 18.5 µM (inactive); in experiment [8], 20.6 µM (inactive); in experiment [9] it was 18.6 µM (inactive); in experiment [10], 18.9 µM (inactive); in [11], 17.6 µM (inactive); in experiment [12], 39 µM (inactive). Also, the GI50 is 20.8 µM (inactive) in [13]; 14.7 µM (inactive) in experiment [14]; 20.8 µM (inactive) in experiment [15]; 18.2 µM (inactive) in experiment [16]; 23.8 µM (inactive) in experiment [17]; 21.8 µM (inactive) in experiment [18]. The GI50 in experiment [19] is 17.1 µM (inactive).

In the case of `COc1cc(C2c3cc4c(cc3OC(O)C2C)OCO4)cc(OC)c1O` (stereo not given), the GI50 in experiment [1] was 10.9 µM (inactive); in [2], 7.64 µM (inactive); in experiment [3] it was 5.19 µM (inactive); in experiment [4], 2.9 µM (inactive); in experiment [5], 6.95 µM (inactive); in experiment [6], 4.76 µM (inactive). Besides, the GI50 in [7] is 28.8 µM (inactive); in experiment [8], 11.6 µM (inactive); in experiment [9], 4.7 µM (inactive); in [10], 3.92 µM (inactive); in experiment [11] it was 8.67 µM (inactive); in [12] it was 8.79 µM (inactive). Also, the GI50 in [13] was 4.85 µM (inactive); in experiment [14], 6.9 µM (inactive); in experiment [15] it was 15.8 µM (inactive); in experiment [16], 21.3 µM (inactive); in experiment [17], 8.49 µM (inactive); in [18], 3.04 µM (inactive). In addition, the figures for the GI50 in experiment [19] and in experiment [20] were 3.95 µM (inactive) and 4.45 µM (inactive), respectively.

On to `Clc1ccc(COC(Cn2ccnc2)c2ccc(Cl)cc2Cl)cc1` (stereo not given) [ECONAZOLE], for which the GI50 in experiment [1] is 14.6 µM (inactive); in experiment [2] it was 6.9 µM (inactive); in experiment [3], 8.49 µM (inactive); in experiment [4], 5.32 µM (inactive); in experiment [5], 14 µM (inactive); in experiment [6] it was 14 µM (inactive). Besides, the GI50 in experiment [7] is 13.1 µM (inactive); in [8], 14.3 µM (inactive); in experiment [9], 8.69 µM (inactive); in [10], 10.8 µM (inactive); in experiment [11] it was 6.98 µM (inactive); in [12] it was 11.6 µM (inactive). Further, the GI50 in experiment [13] is 11.9 µM (inactive); in [14], 15 µM (inactive); in experiment [15], 14.3 µM (inactive); in [16], 4.13 µM (inactive); in [17], 10.8 µM (inactive); in experiment [18] it was 4.76 µM (inactive). The results for the GI50 in experiment [19] and in experiment [20] were 8.71 µM (inactive) and 2.99 µM (inactive), respectively.

`O=[N+]([O-])c1cc2oc(COc3ccccc3)nc2cc1Cl`: the GI50 was 20 µM (inactive) in experiment [1]; 18.4 µM (inactive) in experiment [2]; 27.5 µM (inactive) in [3]; 29.4 µM (inactive) in experiment [4]; 35 µM (inactive) in experiment [5]; 20.9 µM (inactive) in experiment [6]. In addition, the GI50 in experiment [7] was 17.1 µM (inactive); in [8], 38.8 µM (inactive); in experiment [9] it was 32.5 µM (inactive); in experiment [10], 17.4 µM (inactive); in [11], 16.7 µM (inactive); in experiment [12], 22.7 µM (inactive). The GI50 in experiment [13] is 21.3 µM (inactive); in experiment [14], 19.5 µM (inactive); in [15], 47.4 µM (inactive); in experiment [16] it was 27.2 µM (inactive); in experiment [17], 38.4 µM (inactive); in experiment [18], 40 µM (inactive). The GI50 in experiment [19] is 19 µM (inactive); in experiment [20] it was 22.2 µM (inactive).

With `CN(C)c1ccc(C(=NN)c2ccc(N(C)C)cc2)cc1`, the GI50 in experiment [1] was 0.551 µM (active); in [2], 1.66 µM (inactive); in experiment [3], 0.394 µM (active); in experiment [4] it was 0.231 µM (active); in experiment [5], 0.557 µM (active); in experiment [6] it was 0.358 µM (active). In addition, the GI50 in [7] was 1.46 µM (inactive); in experiment [8], 2.2 µM (inactive); in [9], 0.443 µM (active); in experiment [10] it was 0.449 µM (active); in experiment [11] it was 0.966 µM (active); in experiment [12], 0.276 µM (active). Moreover, the GI50 was 0.337 µM (active) in [13]; 0.504 µM (active) in [14]; 8.91 µM (inactive) in experiment [15]; 6.49 µM (inactive) in [16]; 0.755 µM (active) in [17]; 0.229 µM (active) in experiment [18]. In addition, the GI50 in [19] is 0.532 µM (active); in experiment [20], 0.361 µM (active).

For `CN(C)CCn1c(=O)c2ccc(NCCNCCO)c3c(=O)c4cc(O)ccc4n(c1=O)c23`, the GI50 in experiment [1] is 0.661 µM (active); in [2] it was 2.31 µM (inactive); in experiment [3] it was 0.258 µM (active); in experiment [4], < 0.0352 µM (active); in experiment [5], 4.63 µM (inactive); in experiment [6], 3.57 µM (inactive). Further, the GI50 in experiment [7] was 1.01 µM (active); in experiment [8], 1.04 µM (active); in experiment [9] it was 0.665 µM (active); in [10] it was 1.6 µM (inactive); in [11], 0.91 µM (active); in experiment [12] it was 0.938 µM (active). Besides, the GI50 in experiment [13] was 0.655 µM (active); in [14] it was 2.69 µM (inactive); in experiment [15], 0.393 µM (active); in experiment [16], 3.05 µM (inactive); in experiment [17], 1.69 µM (inactive); in experiment [18] it was 0.991 µM (active). In addition, the values for the GI50 in experiment [19] and in experiment [20] were 0.664 µM (active) and 0.229 µM (active), respectively.

Take `O=C(Cl)C1=C(c2ccccc2)C1c1ccccc1` (stereo not given): the GI50 in experiment [1], in experiment [2], in [3], in experiment [4], in [5] and in [6] was > 100 µM (inactive) in each case. For the same compound, the GI50 in experiment [7], in experiment [8], in experiment [9], in experiment [10], in experiment [11] and in [12] was > 100 µM (inactive) throughout. The GI50 in experiment [13], in experiment [14], in experiment [15], in [17], in experiment [18] and in experiment [19] was > 100 µM (inactive) in each case. Moreover, in experiment [20], the GI50 is > 100 µM (inactive).

For the compound `Cc1nc2ccc(Cl)cc2c2c1CCO2`, the GI50 was > 100 µM (inactive) in [1]; 88.7 µM (inactive) in [2]; 57.8 µM (inactive) in [3]; > 100 µM (inactive) in [4]; 64.7 µM (inactive) in [5]; > 100 µM (inactive) in [6]. Moreover, the GI50 was > 100 µM (inactive) in experiment [7]; 60.4 µM (inactive) in experiment [8]; 95.1 µM (inactive) in experiment [9]; 75.7 µM (inactive) in [10]; 67.5 µM (inactive) in experiment [11]; 43.4 µM (inactive) in experiment [12]. For the same compound, the GI50 was 54.2 µM (inactive) in experiment [13]; 68.9 µM (inactive) in [15]; 37.1 µM (inactive) in experiment [16]; 88.1 µM (inactive) in [17]; > 100 µM (inactive) in [18]; 97.5 µM (inactive) in [19]. For the same compound, the GI50 in experiment [20] is 45.2 µM (inactive).

`CCCCCCCCCCCCCCCCP(=O)(O)OP(=O)(O)OCC1OC(n2cnc3c(N)ncnc32)C(O)C1O` (stereo not given): the GI50 in experiment [1] was 22.5 µM (inactive); in experiment [2] it was 82.6 µM (inactive); in experiment [3], 29.6 µM (inactive); in experiment [4] it was 45.5 µM (inactive); in experiment [5], 15.6 µM (inactive); in experiment [6], 26.1 µM (inactive). The GI50 in experiment [7] was 26.8 µM (inactive); in experiment [8], 20 µM (inactive); in experiment [9], 20.3 µM (inactive); in experiment [11] it was 27.4 µM (inactive); in experiment [12] it was 28.7 µM (inactive); in experiment [13], 24.5 µM (inactive). The GI50 is 27.5 µM (inactive) in experiment [14]; 30.3 µM (inactive) in [15]; 15.8 µM (inactive) in experiment [16]; 20.7 µM (inactive) in experiment [17]; 25.8 µM (inactive) in experiment [18]; 21.5 µM (inactive) in experiment [19]. Also, the GI50 in [20] was 17.3 µM (inactive).

As for `CCSC1=C(C#N)C2(CCCCC2)C2=C(O)CC(C)(C)CC2=N1`, the GI50 was 1.01 µM (active) in [1]; 86.1 µM (inactive) in [2]; > 100 µM (inactive) in experiment [3]; > 100 µM (inactive) in experiment [4]; 11.1 µM (inactive) in experiment [5]; > 100 µM (inactive) in experiment [6]. Besides, the GI50 was 32.4 µM (inactive) in experiment [7]; 25.2 µM (inactive) in experiment [8]; > 100 µM (inactive) in experiment [9]; > 100 µM (inactive) in experiment [11]; 35.3 µM (inactive) in experiment [12]; < 0.01 µM (active) in [13]. In addition, the GI50 was > 100 µM (inactive) in experiment [14]; 45 µM (inactive) in experiment [15]; 16.6 µM (inactive) in experiment [16]; 28.9 µM (inactive) in experiment [17]; > 100 µM (inactive) in [18]; > 100 µM (inactive) in experiment [19]. In experiment [20], the GI50 was > 100 µM (inactive).
